According to ChEMBL document CHEMBL1201862, “PubChem BioAssay data set” (2004):
“And” between values parts separate entries of the source, which are not always exact repeats. Identical values can stand only once. The source made the active and inactive calls.

Columns and labels:
[1] = target: 1-acylglycerol-3-phosphate O-acyltransferase ABHD5/Perilipin-5 (Homo sapiens, UniProt Q00G26+Q8WTS1); assay: Luminescence-based biochemical high throughput dose response assay for inhibitors of the interaction of the lipase co-activator protein, abhydrolase domain containing 5 (ABHD5) with perilipin-5 (MLDP; PLIN5) (2K validation set). [Related pubchem assays (depositor defined):AID493035, AID493241]
Perilipin-1/ABHD5 = Perilipin-1/ABHD5 (Homo sapiens, UniProt O60240+Q8WTS1); assay: Luminescence-based biochemical high throughput dose response assay for inhibitors of the interaction of the lipase co-activator protein, abhydrolase domain containing 5 (ABHD5) with perilipin-1 (PLIN1) (2K validation set). [Related pubchem assays (depositor defined):AID493027, AID493057]
[2] = target: Eukaryotic translation initiation factor 4E (Mus musculus, UniProt P63073); assay: blockers of eIF4G binding by eIF4E – biochemical, TR-FRET, dose response (AID 855); type: functional;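 further: potency for disrupting eIF4E binding to eIF4GI seen as loss of FRET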
[3] = target: T1, Short transient receptor potential channel 4 (Mus musculus, UniProt Q9QUQ5); assay: block of DAMGO-driven TRPC4 calcium entry – cell-based, HEK293 TRPC4/mu-opioid, Fluo-4 calcium, dose response (AID 434942); type: functional;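 further: potency of inhibitors blocking the TRPC4 calcium response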
T1 sequence (Q9QUQ5 whole entry): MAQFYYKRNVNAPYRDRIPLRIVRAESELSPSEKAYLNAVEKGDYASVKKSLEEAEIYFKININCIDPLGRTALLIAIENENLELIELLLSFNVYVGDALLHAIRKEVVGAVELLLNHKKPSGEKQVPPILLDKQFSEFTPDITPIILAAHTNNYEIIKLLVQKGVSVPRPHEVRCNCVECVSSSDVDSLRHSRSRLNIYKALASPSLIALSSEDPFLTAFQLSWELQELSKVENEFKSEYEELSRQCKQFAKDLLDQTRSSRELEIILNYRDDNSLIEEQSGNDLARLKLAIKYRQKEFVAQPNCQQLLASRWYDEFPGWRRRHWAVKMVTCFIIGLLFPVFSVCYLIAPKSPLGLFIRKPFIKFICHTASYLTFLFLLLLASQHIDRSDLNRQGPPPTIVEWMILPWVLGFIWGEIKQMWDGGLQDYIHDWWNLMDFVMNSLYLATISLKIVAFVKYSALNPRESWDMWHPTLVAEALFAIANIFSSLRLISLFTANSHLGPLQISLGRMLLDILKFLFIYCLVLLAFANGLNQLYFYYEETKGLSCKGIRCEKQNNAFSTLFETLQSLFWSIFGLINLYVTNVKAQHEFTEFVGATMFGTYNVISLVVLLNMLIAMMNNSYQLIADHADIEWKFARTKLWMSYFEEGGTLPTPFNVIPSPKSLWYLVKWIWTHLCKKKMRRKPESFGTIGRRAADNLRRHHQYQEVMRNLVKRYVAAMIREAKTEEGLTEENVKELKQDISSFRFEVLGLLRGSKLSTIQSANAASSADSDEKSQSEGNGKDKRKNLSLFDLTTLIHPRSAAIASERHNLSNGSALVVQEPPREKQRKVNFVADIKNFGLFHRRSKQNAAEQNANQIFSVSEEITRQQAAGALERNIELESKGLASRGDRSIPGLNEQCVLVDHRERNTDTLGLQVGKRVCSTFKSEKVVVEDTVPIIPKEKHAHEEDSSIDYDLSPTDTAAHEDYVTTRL

HEK293 [4] = assay: cells; settings: Homo sapiens
HEK293 [5] = assay: cells; settings: Homo sapiens; remark: listed apart in the source
[6] = target: Glyceraldehyde-3-phosphate dehydrogenase (Homo sapiens, UniProt P04406)
[7] = target: Alkaline phosphatase, placental type (Homo sapiens, UniProt P05187); assay: human placental alkaline phosphatase inhibition – biochemical, luminescence, confirmation (AID 1512); type: functional
[8] = target: T2, Alkaline phosphatase, tissue-nonspecific isozyme (Homo sapiens, UniProt P05186); assay: potency against alkaline phosphatase TNAP – biochemical, luminescent, dose response, SAR follow-up (AID 1056)
T2 sequence (P05186 whole entry): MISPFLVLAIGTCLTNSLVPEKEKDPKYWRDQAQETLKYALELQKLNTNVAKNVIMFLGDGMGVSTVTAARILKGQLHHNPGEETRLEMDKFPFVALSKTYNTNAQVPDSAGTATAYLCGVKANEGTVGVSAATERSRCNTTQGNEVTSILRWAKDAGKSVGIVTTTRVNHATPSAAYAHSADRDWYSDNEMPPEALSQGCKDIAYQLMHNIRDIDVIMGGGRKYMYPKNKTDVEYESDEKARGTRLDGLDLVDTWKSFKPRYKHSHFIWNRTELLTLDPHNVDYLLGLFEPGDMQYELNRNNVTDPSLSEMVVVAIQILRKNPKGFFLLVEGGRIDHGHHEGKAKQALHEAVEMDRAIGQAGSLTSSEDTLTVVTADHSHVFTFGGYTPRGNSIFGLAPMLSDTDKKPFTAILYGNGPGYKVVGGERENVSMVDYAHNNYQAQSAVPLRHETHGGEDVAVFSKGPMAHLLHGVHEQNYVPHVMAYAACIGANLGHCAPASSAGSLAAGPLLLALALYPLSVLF

[9] = target: T3, Sphingosine 1-phosphate receptor 4 (Homo sapiens, UniProt O95977); assay: Late-stage fluorescence dose response cell-based assay to identify agonists of the Sphingosine 1-Phosphate Receptor 4 (S1P4): purchased compounds EC50. [Related pubchem assays (depositor defined):AID1509, AID1523, AID1563, AID1686, AID1701, AID1801]; type: functional
T3 sequence (O95977 whole entry): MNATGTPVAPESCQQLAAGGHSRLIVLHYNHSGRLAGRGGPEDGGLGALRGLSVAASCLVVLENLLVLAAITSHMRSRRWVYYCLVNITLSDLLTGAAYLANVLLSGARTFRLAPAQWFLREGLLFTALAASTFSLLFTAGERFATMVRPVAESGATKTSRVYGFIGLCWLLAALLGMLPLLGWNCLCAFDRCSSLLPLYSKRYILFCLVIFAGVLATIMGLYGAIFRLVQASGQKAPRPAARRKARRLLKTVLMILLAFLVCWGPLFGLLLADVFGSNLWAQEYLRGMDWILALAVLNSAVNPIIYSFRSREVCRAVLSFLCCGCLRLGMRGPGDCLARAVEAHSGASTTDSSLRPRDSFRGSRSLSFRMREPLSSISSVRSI

[10] = target: T4, Voltage-gated N-type calcium channel alpha-1B subunit/Amyloid beta A4 precursor protein-binding family A member 1 (Homo sapiens, UniProt Q00975+Q02410); type: protein assay
[11] = target: T4, Voltage-gated N-type calcium channel alpha-1B subunit/Amyloid beta A4 precursor protein-binding family A member 1; type: protein assay; remark: listed apart in the source
[12] = target: Induced myeloid leukemia cell differentiation protein Mcl-1 (Homo sapiens, UniProt Q07820); type: functional
Bcl-2-related protein A1 = target: T5, Bcl-2-related protein A1 (Mus musculus, UniProt Q07440); type: functional;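 further: confirmatory dose–response counterscreen on Bfl-1, used to check hits from a UBC13 polyubiquitin inhibitor campaign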
T5 sequence (Q07440 whole entry): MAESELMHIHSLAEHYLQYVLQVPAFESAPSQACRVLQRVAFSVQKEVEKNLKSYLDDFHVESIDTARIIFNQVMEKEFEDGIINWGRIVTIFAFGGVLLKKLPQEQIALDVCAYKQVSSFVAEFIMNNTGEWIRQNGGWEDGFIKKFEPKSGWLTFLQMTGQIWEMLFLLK

[13] = target: T6, Ubiquitin-conjugating enzyme E2 N (Homo sapiens, UniProt P61088); type: functional
T6 sequence (P61088 whole entry): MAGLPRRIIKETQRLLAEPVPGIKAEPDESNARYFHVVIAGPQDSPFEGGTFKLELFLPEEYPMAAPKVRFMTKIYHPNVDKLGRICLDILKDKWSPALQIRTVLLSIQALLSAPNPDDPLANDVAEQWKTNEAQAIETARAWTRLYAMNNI

[14] = target: T6, Ubiquitin-conjugating enzyme E2 N; type: functional; remark: listed apart in the source
[15] = target: T7, Type-1 angiotensin II receptor (Homo sapiens, UniProt P30556); assay: agonist activity at AGTR1 – cell-based, uHTS hits, selectivity assay for APJ receptor agonist project, dose response (AID 488865); type: functional;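 further: beta-arrestin recruitment to AT1 measured by enzyme fragment complementation luminescence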
T7 sequence (P30556 whole entry): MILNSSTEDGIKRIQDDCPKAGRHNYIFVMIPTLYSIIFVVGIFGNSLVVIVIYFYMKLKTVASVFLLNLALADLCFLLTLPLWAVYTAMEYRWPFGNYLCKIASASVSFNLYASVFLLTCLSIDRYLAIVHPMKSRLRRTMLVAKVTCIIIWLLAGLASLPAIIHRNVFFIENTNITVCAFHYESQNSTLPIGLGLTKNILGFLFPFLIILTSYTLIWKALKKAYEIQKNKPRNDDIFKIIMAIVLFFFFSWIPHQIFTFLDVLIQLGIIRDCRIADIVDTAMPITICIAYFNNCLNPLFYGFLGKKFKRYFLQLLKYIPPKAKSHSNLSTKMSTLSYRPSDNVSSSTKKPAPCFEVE

[16] = target: Delta-type opioid receptor (Homo sapiens, UniProt P41143); assay: Counterscreen for agonists of heterodimerization of the mu 1 (OPRM1) and delta 1 (OPRD1) opioid receptors: Luminescence-based cell-based high throughput dose response assay to identify agonists of OPRD1 homodimerization. [Related pubchem assays (depositor defined):AID504326, AID504355, AID504692, AID504904, AID504905]; type: functional
Mu-type opioid receptor = Mu-type opioid receptor (Homo sapiens, UniProt P35372); assay: Counterscreen for agonists of heterodimerization of the mu 1 (OPRM1) and delta 1 (OPRD1) opioid receptors: Luminescence-based cell-based high throughput dose response assay to identify agonists of OPRM1 homodimerization.; type: functional;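 further: U2OS cells expressing OPRM1 and beta-arrestin as split beta-galactosidase partners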
[17] = target: 5-hydroxytryptamine receptor 5A (Homo sapiens, UniProt P47898); assay: Counterscreen for agonists of OPRM1-OPRD1 heterodimerization: luminescence-based cell-based high throughput dose response assay to identify agonists of 5-hydroxytryptamine (serotonin) 5A receptor (HTR5A). [Related pubchem assays (depositor defined):AID504326, AID504355, AID504692, AID504904, AID504905]; type: functional
[18] = Fluorescence-based cell-based high throughput dose response assay for inhibitors of the interaction of nucleotide-binding oligomerization domain containing 2 (NOD2) and the receptor-interacting serine-threonine kinase 2 (RIPK2).; type: functional; settings: Homo sapiens
[19] = target: T8, Tyrosine-protein phosphatase non-receptor type 7 (Homo sapiens, UniProt P35236); assay: redox-active compounds inhibiting HePTP phosphatase – biochemical, fluorescence, mechanism study (AID 2068); type: functional
T8 sequence (P35236 whole entry): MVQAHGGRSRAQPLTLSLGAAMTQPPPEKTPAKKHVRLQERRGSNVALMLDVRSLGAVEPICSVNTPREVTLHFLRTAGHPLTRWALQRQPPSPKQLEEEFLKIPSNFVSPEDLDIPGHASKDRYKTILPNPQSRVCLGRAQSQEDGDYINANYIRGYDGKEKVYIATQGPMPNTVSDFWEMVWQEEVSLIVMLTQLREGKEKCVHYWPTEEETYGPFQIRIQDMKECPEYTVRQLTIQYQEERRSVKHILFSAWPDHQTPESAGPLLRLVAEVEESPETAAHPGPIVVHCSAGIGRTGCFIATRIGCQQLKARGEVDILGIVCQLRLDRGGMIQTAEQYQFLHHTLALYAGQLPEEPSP

Sequence of Alkaline phosphatase, placental type (P05187 whole entry): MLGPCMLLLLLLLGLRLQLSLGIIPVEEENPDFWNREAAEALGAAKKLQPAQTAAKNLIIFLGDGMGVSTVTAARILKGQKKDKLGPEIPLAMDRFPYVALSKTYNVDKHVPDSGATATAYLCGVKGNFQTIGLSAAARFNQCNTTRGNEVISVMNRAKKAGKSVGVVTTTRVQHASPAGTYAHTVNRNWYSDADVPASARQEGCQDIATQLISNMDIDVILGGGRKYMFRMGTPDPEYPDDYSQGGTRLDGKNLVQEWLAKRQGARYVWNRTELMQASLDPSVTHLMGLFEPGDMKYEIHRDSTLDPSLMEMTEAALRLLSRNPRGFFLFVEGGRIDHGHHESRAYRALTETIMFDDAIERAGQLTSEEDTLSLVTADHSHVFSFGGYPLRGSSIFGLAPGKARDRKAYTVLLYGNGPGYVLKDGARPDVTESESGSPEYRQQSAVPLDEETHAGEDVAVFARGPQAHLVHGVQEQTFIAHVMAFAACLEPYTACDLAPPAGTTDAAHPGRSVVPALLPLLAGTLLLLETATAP
T4 sequence (Q00975 whole entry): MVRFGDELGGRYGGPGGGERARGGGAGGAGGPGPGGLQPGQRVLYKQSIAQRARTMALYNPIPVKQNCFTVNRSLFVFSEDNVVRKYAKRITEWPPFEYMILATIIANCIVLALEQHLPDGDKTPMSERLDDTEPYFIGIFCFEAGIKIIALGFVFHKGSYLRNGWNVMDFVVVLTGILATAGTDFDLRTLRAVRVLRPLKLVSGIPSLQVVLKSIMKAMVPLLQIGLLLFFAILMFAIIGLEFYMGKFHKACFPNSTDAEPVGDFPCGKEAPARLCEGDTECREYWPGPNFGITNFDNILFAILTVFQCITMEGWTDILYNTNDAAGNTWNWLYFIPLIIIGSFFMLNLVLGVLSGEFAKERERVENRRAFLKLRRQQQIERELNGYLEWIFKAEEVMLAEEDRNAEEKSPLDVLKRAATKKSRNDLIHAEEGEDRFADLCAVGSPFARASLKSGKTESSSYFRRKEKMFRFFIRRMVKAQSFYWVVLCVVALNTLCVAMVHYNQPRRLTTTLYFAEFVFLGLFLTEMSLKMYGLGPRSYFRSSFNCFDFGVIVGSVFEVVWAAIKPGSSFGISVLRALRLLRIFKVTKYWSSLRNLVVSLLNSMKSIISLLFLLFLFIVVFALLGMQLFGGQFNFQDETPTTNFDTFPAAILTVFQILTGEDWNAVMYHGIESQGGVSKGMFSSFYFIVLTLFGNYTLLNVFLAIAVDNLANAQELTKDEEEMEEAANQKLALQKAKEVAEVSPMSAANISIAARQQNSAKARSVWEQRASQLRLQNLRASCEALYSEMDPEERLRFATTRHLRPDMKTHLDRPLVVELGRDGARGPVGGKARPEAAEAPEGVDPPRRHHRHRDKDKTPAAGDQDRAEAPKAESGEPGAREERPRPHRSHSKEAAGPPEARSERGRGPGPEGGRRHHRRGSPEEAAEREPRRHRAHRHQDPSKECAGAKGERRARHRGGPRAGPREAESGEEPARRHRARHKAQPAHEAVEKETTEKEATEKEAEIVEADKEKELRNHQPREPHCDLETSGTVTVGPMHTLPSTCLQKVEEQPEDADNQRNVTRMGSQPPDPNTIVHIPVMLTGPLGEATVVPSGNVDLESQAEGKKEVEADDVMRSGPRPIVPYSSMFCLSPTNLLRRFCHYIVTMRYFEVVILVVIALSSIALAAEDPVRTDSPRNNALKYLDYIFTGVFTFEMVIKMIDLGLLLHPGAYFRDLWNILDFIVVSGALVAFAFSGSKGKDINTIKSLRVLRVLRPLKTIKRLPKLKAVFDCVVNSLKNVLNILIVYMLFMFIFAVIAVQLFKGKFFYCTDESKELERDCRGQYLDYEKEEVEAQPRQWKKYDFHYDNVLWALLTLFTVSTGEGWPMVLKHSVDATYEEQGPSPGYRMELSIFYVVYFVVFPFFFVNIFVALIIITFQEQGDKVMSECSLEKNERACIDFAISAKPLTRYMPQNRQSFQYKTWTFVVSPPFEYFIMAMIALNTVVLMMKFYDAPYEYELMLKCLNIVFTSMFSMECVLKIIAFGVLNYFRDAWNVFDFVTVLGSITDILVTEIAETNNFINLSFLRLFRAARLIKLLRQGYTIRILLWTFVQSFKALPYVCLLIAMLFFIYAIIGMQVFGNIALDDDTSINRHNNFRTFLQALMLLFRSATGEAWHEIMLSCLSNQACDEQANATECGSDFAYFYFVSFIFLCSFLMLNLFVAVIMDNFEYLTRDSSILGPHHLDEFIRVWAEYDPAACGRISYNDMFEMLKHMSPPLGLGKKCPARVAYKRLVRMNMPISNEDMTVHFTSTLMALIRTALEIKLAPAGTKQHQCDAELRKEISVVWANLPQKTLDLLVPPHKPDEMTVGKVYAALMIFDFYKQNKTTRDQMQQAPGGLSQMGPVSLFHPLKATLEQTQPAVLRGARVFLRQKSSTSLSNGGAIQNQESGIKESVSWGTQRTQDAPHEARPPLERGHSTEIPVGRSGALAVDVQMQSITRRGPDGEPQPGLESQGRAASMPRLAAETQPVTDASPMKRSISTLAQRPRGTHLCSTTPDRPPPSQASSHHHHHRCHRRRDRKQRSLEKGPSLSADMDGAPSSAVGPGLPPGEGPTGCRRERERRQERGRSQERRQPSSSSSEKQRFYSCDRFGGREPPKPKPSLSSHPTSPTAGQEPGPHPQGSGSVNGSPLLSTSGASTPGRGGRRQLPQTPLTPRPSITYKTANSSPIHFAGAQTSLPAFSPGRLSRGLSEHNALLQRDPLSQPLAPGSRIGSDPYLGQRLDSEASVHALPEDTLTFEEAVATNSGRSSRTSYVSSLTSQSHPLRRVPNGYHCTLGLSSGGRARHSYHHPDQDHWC
T4 sequence (Q02410 whole entry): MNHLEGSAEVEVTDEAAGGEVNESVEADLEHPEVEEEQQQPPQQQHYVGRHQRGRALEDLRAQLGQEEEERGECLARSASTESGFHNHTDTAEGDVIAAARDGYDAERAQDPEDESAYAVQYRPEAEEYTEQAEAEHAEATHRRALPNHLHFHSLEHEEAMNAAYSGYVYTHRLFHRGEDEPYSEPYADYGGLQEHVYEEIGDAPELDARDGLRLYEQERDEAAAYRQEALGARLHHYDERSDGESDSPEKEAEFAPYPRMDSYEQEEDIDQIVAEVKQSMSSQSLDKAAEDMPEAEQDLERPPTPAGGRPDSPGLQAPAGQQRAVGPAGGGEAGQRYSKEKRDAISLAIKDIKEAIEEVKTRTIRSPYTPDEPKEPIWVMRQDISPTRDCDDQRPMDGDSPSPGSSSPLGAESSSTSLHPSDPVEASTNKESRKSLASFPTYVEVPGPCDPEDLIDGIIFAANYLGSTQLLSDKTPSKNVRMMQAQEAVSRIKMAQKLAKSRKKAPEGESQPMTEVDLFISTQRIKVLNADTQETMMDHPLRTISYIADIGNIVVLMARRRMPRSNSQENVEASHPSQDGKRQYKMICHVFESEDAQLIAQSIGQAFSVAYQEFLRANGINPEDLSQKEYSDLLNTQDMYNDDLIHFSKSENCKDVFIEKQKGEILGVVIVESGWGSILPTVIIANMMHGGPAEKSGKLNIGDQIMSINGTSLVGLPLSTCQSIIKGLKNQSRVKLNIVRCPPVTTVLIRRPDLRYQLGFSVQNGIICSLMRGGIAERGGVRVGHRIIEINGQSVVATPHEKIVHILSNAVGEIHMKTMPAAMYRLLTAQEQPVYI
Sequence of Perilipin-1/ABHD5 (Q8WTS1 whole entry, the tested form may be a part): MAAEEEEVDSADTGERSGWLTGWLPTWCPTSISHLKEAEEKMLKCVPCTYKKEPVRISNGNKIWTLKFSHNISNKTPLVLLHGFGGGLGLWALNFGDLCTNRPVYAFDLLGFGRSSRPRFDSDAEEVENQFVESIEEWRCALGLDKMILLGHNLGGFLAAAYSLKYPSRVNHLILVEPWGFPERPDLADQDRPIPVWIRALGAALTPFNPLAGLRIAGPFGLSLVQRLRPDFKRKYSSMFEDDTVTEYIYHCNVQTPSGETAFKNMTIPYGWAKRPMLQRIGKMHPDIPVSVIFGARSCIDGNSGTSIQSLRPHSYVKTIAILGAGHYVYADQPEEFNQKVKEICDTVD
Sequence of Perilipin-1/ABHD5 (O60240 whole entry, the tested form may be a part): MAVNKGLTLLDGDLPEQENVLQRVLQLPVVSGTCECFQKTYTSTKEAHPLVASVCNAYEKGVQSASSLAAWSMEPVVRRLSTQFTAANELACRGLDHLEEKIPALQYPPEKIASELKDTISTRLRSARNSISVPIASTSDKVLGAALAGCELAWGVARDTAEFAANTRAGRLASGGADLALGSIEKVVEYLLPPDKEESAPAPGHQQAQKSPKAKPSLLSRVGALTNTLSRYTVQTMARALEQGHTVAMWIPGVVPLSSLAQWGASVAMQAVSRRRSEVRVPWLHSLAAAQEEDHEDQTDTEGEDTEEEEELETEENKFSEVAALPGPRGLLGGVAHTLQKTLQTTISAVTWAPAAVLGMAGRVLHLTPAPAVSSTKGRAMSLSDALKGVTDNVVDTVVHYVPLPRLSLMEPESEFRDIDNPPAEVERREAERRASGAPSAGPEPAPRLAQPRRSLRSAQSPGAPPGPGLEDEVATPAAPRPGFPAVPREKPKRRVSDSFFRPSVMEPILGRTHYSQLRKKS
Sequence of 1-acylglycerol-3-phosphate O-acyltransferase ABHD5/Perilipin-5 (Q00G26 whole entry, the tested form may be a part): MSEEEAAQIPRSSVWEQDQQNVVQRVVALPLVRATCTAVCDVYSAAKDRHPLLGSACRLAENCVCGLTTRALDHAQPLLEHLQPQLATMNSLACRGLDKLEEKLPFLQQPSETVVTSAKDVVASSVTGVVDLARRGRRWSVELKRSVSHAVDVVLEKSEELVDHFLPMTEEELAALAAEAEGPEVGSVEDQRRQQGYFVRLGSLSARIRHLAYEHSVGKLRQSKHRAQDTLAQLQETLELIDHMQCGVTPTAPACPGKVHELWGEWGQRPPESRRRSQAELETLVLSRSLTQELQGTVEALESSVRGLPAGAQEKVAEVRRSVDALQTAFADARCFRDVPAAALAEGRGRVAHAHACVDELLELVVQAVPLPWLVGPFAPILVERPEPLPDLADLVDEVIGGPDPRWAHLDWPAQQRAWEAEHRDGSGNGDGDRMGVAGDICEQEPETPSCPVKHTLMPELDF
Sequence of 1-acylglycerol-3-phosphate O-acyltransferase ABHD5/Perilipin-5 (Q8WTS1 whole entry, the tested form may be a part): as the sequence (Q8WTS1 whole entry, the tested form may be a part) above

SMILES: CC1(C)c2ccccc2N2CC(=O)NC21/C=C/c1ccco1 (stereo not drawn)
- IC50 [1]: 20.6 µM (inactive)
- IC50 (Perilipin-1/ABHD5): 20.8 µM (inactive)
- IC50 [2]: 50 µM (inactive)

SMILES: CCOc1cc2c3c(c1)C(C)=CC(C)(C)N3C(=O)C2=O
- IC50 [1]: 15 µM (inactive)
- IC50 (Perilipin-1/ABHD5): 15.3 µM (inactive)

SMILES: O=C(NCCN1CCOCC1)c1cc2sccc2n1Cc1ccc(F)cc1
- EC50 [3]: 5.96 µM (active)
- EC50 (HEK293 [4]): > 59.7 µM (inactive)
- EC50 (HEK293 [5]): > 59.7 µM (inactive)

SMILES: Clc1ccccc1-c1nnc2c3cnn(-c4ccccc4)c3ncn12
- IC50 [6]: > 100 µM (not active)
- IC50 [7]: > 100 µM (inactive)
- IC50 [8]: > 100 µM (inactive)

SMILES: CCNC(=O)NC(=O)C(C)OC(=O)c1c(C)nn(Cc2ccccc2Cl)c1Cl (stereo not drawn)
- EC50 [9]: 1.5 µM (active) and 2.5 µM (active)

SMILES: Cc1ccc(O)c(CNc2nc3ccccc3[nH]2)c1
- EC50 [3]: 1.5 µM (active)

SMILES: CCOC(=O)c1ccc(N=Nc2c(O)nc(O)c(C#N)c2C)cc1
- IC50 [10]: > 56.8 µM (not active)
- IC50 [11]: > 50 µM (inactive)
- IC50 [12]: 3.18 µM (active)

SMILES: CCc1ccc2nc(N(CCCN(C)C)C(=O)c3ccc(S(=O)(=O)N4CCc5ccccc5C4)cc3)sc2c1
- IC50 (Bcl-2-related protein A1): > 20 µM (inactive)
- IC50 [13]: 4.58 µM (active)
- IC50 [14]: 4.49 µM (active)
- EC50 [15]: > 100 µM (inactive)
- EC50 [16]: > 92.5 µM (inactive)
- EC50 (Mu-type opioid receptor): > 92.5 µM (inactive)
- EC50 [17]: > 92.5 µM (inactive)
- IC50 [18]: 80 µM (inactive)

SMILES: Cc1ccc(OCC(=O)NCCc2ccc(Cl)cc2Cl)c([N+](=O)[O-])n1
- EC50 [9]: > 50 µM (inactive)

SMILES: COc1ccc(NC(=O)Nc2ccc3nc(-c4ccco4)c(-c4ccco4)nc3c2)cc1
- IC50 [19]: 12.2 µM (active)

SMILES: Cn1ccnc1SCC(=O)c1ccc(O)c(O)c1
- IC50 [7]: 8.56 µM (active)
- IC50 [8]: 75.7 µM (active)
